Reference: ChEMBL document CHEMBL5149973, “Agaricus bisporus-Derived Glucosamine Hydrochloride Facilitates Skeletal Injury Repair through Bmp Signaling in Zebrafish Osteoporosis Model” (J Nat Prod, 2021)
Activity calls are given as the source filed them. The calls are words filed in the database; no cut-off is given here.

Tests used:
Danio rerio [1] = species on record: Danio rerio; experiment: Suppression of Bmp signaling in Zebrafish tBr injected mRNA embryos assessed as reduction in slight loss of tail tissue at 2.5 uM measured at 26 hrs post fertilization; assay type: functional, Embryo; parameters: scale not given: the % may be the effect or the level left
Danio rerio [2] = species on record: Danio rerio; experiment: Suppression of Bmp signaling in Zebrafish tBr injected mRNA embryos assessed as reduction in indistinctive tail tissue at 2.5 uM measured at 26 hrs post fertilization; assay type: functional, Embryo; parameters: scale not given: the % may be the effect or the level left
Osteoblast [3] = experiment: Induction of osteoblast differentiation in transgenic osx mCherry Zebrafish embryo assessed as increase in Sox9a mRNA expression in fin at 0.1 % measured after 15 days by semiquantitative PCR analysis; assay type: functional, tissue-based; settings: Danio rerio, time 15.0 day
Osteoblast [4] = experiment: Induction of osteoblast differentiation in transgenic osx mCherry Zebrafish embryo assessed as increase in Sox9b mRNA expression in fin at 0.1 % measured after 15 days by semiquantitative PCR analysis; assay type: functional, tissue-based; settings: Danio rerio, time 15.0 day
Osteoblast [5] = experiment: Induction of osteoblast differentiation in transgenic osx mCherry Zebrafish embryo assessed as increase in Col10a1a mRNA expression in fin at 0.1 % measured after 15 days by semiquantitative PCR analysis; assay type: functional; settings: Danio rerio, time 15.0 day
Osteoblast [6] = experiment: Induction of osteoblast differentiation in transgenic osx mCherry Zebrafish embryo assessed as increase in Col1a2 mRNA expression in fin at 0.1 % measured after 15 days by semiquantitative PCR analysis; assay type: functional, tissue-based; settings: Danio rerio, time 15.0 day
Danio rerio [7] = species on record: Danio rerio; experiment: Anti-osteoporosis activity in FAC-induced skeletal injury Zebrafish assessed as increase in cumulative bone optical density in caudal fins at 0.1 % measured for 10 day post fertilization; assay type: functional, organism-based
Danio rerio [8] = species on record: Danio rerio; experiment: Anti-osteoporosis activity in FAC-induced skeletal injury Zebrafish assessed as increase in cumulative bone optical density in spine at 0.1 % measured for 10 day post fertilization; assay type: functional, organism-based

Compound: c1cc(-c2cnn3cc(-c4ccc(OCCN5CCCCC5)cc4)cnc23)ccn1 [DORSOMORPHIN]
- Activity (Danio rerio [1]): 80%
- Activity (Danio rerio [2]): 80%

Compound: NCCCC(O)(P(=O)(O)O)P(=O)(O)O
- Activity (Osteoblast [3]): Active
- Activity (Osteoblast [4]): Active
- Activity (Osteoblast [5]): Active
- Activity (Osteoblast [6]): Active
- Activity (Danio rerio [7]): Active
- Activity (Danio rerio [8]): Active
